From PubChem BioAssay (NCI)
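Values below derive from 48-hour exposures of cells grown in 96-well plates, with endpoints linearly interpolated between the two concentrations bracketing the appropriate inhibition level. Definition used: TGI = concentration required for complete inhibition of growth.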

Assays:
Assay in all cases: NCI tumour cell line growth inhibition, 48 h
UACC-257 melanoma = test system: UACC-257 melanoma
UO-31 renal = test system: UO-31 renal
SK-OV-3 ovarian = test system: SK-OV-3 ovarian
UACC-62 melanoma = test system: UACC-62 melanoma
HOP-92 NSCLC = test system: HOP-92 NSCLC
HL-60(TB) leukemia = test system: HL-60(TB) leukemia
SK-MEL-28 melanoma = test system: SK-MEL-28 melanoma
SK-MEL-5 melanoma = test system: SK-MEL-5 melanoma
M14 melanoma = test system: M14 melanoma
M19-MEL melanoma = test system: M19-MEL melanoma
LOX IMVI melanoma = test system: LOX IMVI melanoma
HOP-62 NSCLC = test system: HOP-62 NSCLC
NCI-H226 lung = test system: NCI-H226 lung
XF 498 CNS = test system: XF 498 CNS
SN12C renal = test system: SN12C renal
TK-10 renal = test system: TK-10 renal
SNB-19 CNS = test system: SNB-19 CNS
LXFL 529 NSCLC = test system: LXFL 529 NSCLC
HCT-15 colon = test system: HCT-15 colon
DMS 114 small cell lung = test system: DMS 114 small cell lung
RXF 393 renal = test system: RXF 393 renal
KM20L2 colon = test system: KM20L2 colon
SF-268 CNS = test system: SF-268 CNS
RPMI-8226 leukemia = test system: RPMI-8226 leukemia
A549 NSCLC = test system: A549 NSCLC
HCC-2998 colon = test system: HCC-2998 colon
CCRF-CEM leukemia = test system: CCRF-CEM leukemia
OVCAR-5 ovarian = test system: OVCAR-5 ovarian
NCI-H460 lung = test system: NCI-H460 lung
786-0 renal = test system: 786-0 renal
K-562 leukemia = test system: K-562 leukemia
SK-MEL-2 melanoma = test system: SK-MEL-2 melanoma
MOLT-4 leukemia = test system: MOLT-4 leukemia
HCT-116 colon = test system: HCT-116 colon
MALME-3M melanoma = test system: MALME-3M melanoma
KM12 colon = test system: KM12 colon
OVCAR-4 ovarian = test system: OVCAR-4 ovarian
OVCAR-8 ovarian = test system: OVCAR-8 ovarian
SF-295 CNS = test system: SF-295 CNS
NCI-H23 lung = test system: NCI-H23 lung
HOP-18 NSCLC = test system: HOP-18 NSCLC
HT29 colon = test system: HT29 colon
SW-620 colon = test system: SW-620 colon
U251 CNS = test system: U251 CNS
DMS 273 small cell lung = test system: DMS 273 small cell lung
DLD-1 colon = test system: DLD-1 colon
COLO 205 colon = test system: COLO 205 colon
OVCAR-3 ovarian = test system: OVCAR-3 ovarian
ACHN renal = test system: ACHN renal
SNB-75 CNS = test system: SNB-75 CNS
NCI-H522 lung = test system: NCI-H522 lung
SNB-78 CNS = test system: SNB-78 CNS
SR leukemia = test system: SR leukemia
SF-539 CNS = test system: SF-539 CNS
EKVX NSCLC = test system: EKVX NSCLC
CAKI-1 renal = test system: CAKI-1 renal
DU-145 prostate = test system: DU-145 prostate
IGROV1 ovarian = test system: IGROV1 ovarian
BT-549 breast = test system: BT-549 breast
MDA-N = test system: MDA-N
HS 578T breast = test system: HS 578T breast
NCI/ADR-RES ovarian = test system: NCI/ADR-RES ovarian
MDA-MB-231 breast = test system: MDA-MB-231 breast
MCF7 breast = test system: MCF7 breast
A498 renal = test system: A498 renal
T-47D breast = test system: T-47D breast
PC-3 prostate = test system: PC-3 prostate
MDA-MB-435 = test system: MDA-MB-435

Measured: TGI

COc1cc(C=C2C(=O)NC(=O)NC2=O)cc(OC)c1OC
not listed: DU-145 prostate | IGROV1 ovarian | BT-549 breast | MDA-N | HS 578T breast | NCI/ADR-RES ovarian | MDA-MB-231 breast | MCF7 breast | A498 renal | T-47D breast | PC-3 prostate | MDA-MB-435
> 100 µM: all other assays above

N#CC(NC12CC3CC(CC(C3)C1)C2)c1ccccc1C(F)(F)F (configuration not stated)
not listed: UACC-257 melanoma | SK-OV-3 ovarian | UACC-62 melanoma | HOP-92 NSCLC | 786-0 renal | SF-295 CNS | U251 CNS | SNB-75 CNS | SNB-78 CNS | DU-145 prostate | IGROV1 ovarian | BT-549 breast | MDA-N | HS 578T breast | NCI/ADR-RES ovarian | MDA-MB-231 breast | MCF7 breast | A498 renal | T-47D breast | PC-3 prostate | MDA-MB-435
> 100 µM: all other assays above

O=C(O)C1OC(n2cc(F)c(=O)[nH]c2=O)CC1O (configuration not stated)
> 77.4 µM: HCC-2998 colon
> 56.2 µM: MOLT-4 leukemia
> 51.4 µM: HOP-92 NSCLC
26.2 µM: SF-539 CNS
> 80.5 µM: UACC-62 melanoma
> 59.1 µM: ACHN renal
> 63.1 µM: SK-MEL-28 melanoma
> 89.2 µM: HOP-62 NSCLC
> 100 µM: all other assays above

N#CCN1C(=O)c2cccc3cc([N+](=O)[O-])cc(c23)C1=O
41.8 µM: SR leukemia
62.4 µM: NCI-H226 lung
60.5 µM: UACC-62 melanoma
56.4 µM: HL-60(TB) leukemia
66.8 µM: LOX IMVI melanoma
88.6 µM: OVCAR-3 ovarian
92.7 µM: MALME-3M melanoma
95.6 µM: TK-10 renal
68.3 µM: XF 498 CNS
22.2 µM: SK-MEL-2 melanoma
83.1 µM: UACC-257 melanoma
44.5 µM: M19-MEL melanoma
not listed: NCI-H522 lung | CAKI-1 renal | DU-145 prostate | BT-549 breast | MDA-N | HS 578T breast | NCI/ADR-RES ovarian | MDA-MB-231 breast | MCF7 breast | T-47D breast | PC-3 prostate | MDA-MB-435
> 100 µM: all other assays above
